Tests used:
Brd4 BD1 = Brd4 BD1 (Homo sapiens (Human), UniProt O60885); assay: HTRF evaluation of bromodomain inhibitors, Brd4 BD1; format: binding; conditions: H4ac4 peptide 50 nM, 4 h at 4° C.
Protocol: (§1) HTRF reagents and buffers were purchased from Cisbio Bioassays. The assay used a terbium (Ill) cryptate donor reagent conjugated to an anti-GST antibody (MAb anti-GST-Tb; GSTTLA), a streptavidin-conjugated acceptor reagent (streptavidin-d2) and Cisbio proprietary buffers (EPlgeneous Binding Domain Diluent and Detection buffer, respectively). GST-tagged bromodomains (BDs) were expressed in E. coli and purified using standard procedures. Incubation of GST-tagged BDs with biotinylated acetylated H4 peptide (H4K5acK8acK12acK16ac, here named H4ac4) brings the donor and acceptor into close proximity and allows for a FRET reaction. GST-tagged proteins in 25 mM Hepes pH 7.5, 150 mM NaCl, 0.5 mM DTT were assayed at a final concentration of 5 nM. Biotinylated H4ac4 peptides were used at a final concentration of 50, 600 nM in assays involving Brd4 BD1, Brd4 BD2, respectively. The antibody-conjugated donor was used at 0.5 nM and the streptavidin-conjugated acceptor was used at ⅛ of the H4ac4 peptide concentration. Inhibitors were tested by performing an eleven-point dilution series with a maximal final concentration of […]. These concentrations allowed a fixed DMSO concentration at 0.2%, critical for a Z′ factor ≥0.8. Components were incubated at 4° C. for 4 h (BD1) or for 24 h (BD2). Experiments were performed in 384-well white plates (Greiner ref. 781080) and analyzed in a ClarioStar plate reader (BMG LABTECH, excitation at 330 nm and emission at 620 and 665 nm, corresponding to the donor and acceptor emission peaks, respectively; the 665/620 ratio is used to calculate the specific HTRF signal) with an integration delay of 60 μs and an integration time of 400 μs.

Brd4 BD2 = Brd4 BD2 (Homo sapiens (Human), UniProt O60885); assay: HTRF evaluation of bromodomain inhibitors, Brd4 BD2; format: binding; conditions: for IC50: HTRF, H4ac4 peptide 600 nM, 24 h at 4° C.; for Selectivity BD2/BD1: ratio of the BD1 and BD2 IC50
Protocol: as §1

| SMILES | IC50 (Brd4 BD1) | IC50 (Brd4 BD2) | Selectivity BD2/BD1 (Brd4 BD2) |
| --- | --- | --- | --- |
| CC[C@H]1[C@H](C)[C@@H](N=[N+]=[N-])c2cc(C(=O)OC)ccc2N1C(C)=O [Compound 30, Methyl-(2S,3S,4R)-1-acetyl-4-azido-2-ethyl-3-methyl-1,2,3,4-tetrahydroquinoline-6-carboxylate] | > 20000 nM | > 20000 nM |  |
| CC[C@H]1[C@@H](C)C(n2cc(COCCOCCOCCOCCOCCOCc3cn(C4c5cc(C(=O)OC)ccc5N(C(C)=O)[C@@H](CC)[C@H]4C)nn3)nn2)c2cc(C(=O)OC)ccc2N1C(C)=O (stereo partly drawn) [XY, Dimethyl-4,4′-((2,5,8,11,14,17-hexaoxaoctadecane-1,18-diyl)bis(1H-1,2,3-triazole-4,1-diyl))(2S,2'S,3R,3′R,4S,4'S)-bis(1-acetyl-2-ethyl-3-methyl-1,2,3,4-tetrahydroquinoline-6-carboxylate)] | 1560 nM | 95 nM | 16.4 |
| CCCCCc1cn([C@@H]2c3cc(C(F)(F)F)ccc3N(C(C)=O)[C@@H](CC)[C@H]2C)nn1 [YD, 1-((2S,3R,4S)-2-ethyl-3-methyl-4-(4-pentyl-1H-1,2,3-triazol-1-yl)-6-(trifluoromethyl)-3,4-dihydroquinolin-1(2H)-yl)ethan-1-one] | 41800 nM | 5710 nM | 7.3 |
| CC[C@H]1[C@@H](C)[C@H](n2cc(-c3ccc(C(F)(F)F)cc3)nn2)c2cc(C(=O)OC)ccc2N1C(C)=O [XN, Methyl (2S,3R,4S)-1-acetyl-2-ethyl-3-methyl-4-(4-(4-(trifluoromethyl)phenyl)-1H-1,2,3-triazol-1-yl)-1,2,3,4-tetrahydroquinoline-6-carboxylate] | 14500 nM | 1910 nM | 7.6 |
| C#CCOCCOCCOCCOCc1cn([C@H]2c3cc(C(=O)OC)ccc3N(C(C)=O)[C@@H](CC)[C@@H]2C)nn1 [Compound 32, Methyl-(2S,3S,4R)-4-(4-(2,5,8,11-tetraoxatetradec-13-yn-1-yl)-1H-1,2,3-triazol-1-yl)-1-acetyl-2-ethyl-3-methyl-1,2,3,4-tetrahydroquinoline-6-carboxylate] | > 20000 nM | > 20000 nM |  |
| CCCCCc1cn([C@@H]2c3cc(C(=O)OC)ccc3N(C(C)=O)[C@@H](CC)[C@H]2C)nn1 [XF, Methyl (2S,3R,4S)-1-acetyl-2-ethyl-3-methyl-4-(4-pentyl-1H-1,2,3-triazol-1-yl)-1,2,3,4-tetrahydroquinoline-6-carboxylate] | 30000 nM | 1930 nM | 15.6 |
| C=CCCCC(=O)Nc1ccc(-c2ccc3c(c2)[C@H](n2cc(CCCCC)nn2)[C@@H](C)[C@@H](CC)N3C(C)=O)cc1 [ent-XE] | > 100000 nM | > 100000 nM |  |
| CC[C@H]1[C@@H](C)[C@H](Nc2ncc(Cl)cn2)c2cc(C(=O)OC)ccc2N1C(C)=O [XL, Methyl (2S,3S,4S)-1-acetyl-4-((5-chloropyrimidin-2-yl)amino)-2-ethyl-3-methyl-1,2,3,4-tetrahydroquinoline-6-carboxylate] | 10100 nM | 1130 nM | 9.0 |
| C=CCCCC(=O)Nc1ccc(-c2ccc3c(c2)[C@@H](N=[N+]=[N-])[C@H](C)[C@H](CC)N3C(C)=O)cc1 [XC, N-(4-((2S,3R,4S)-1-acetyl-4-azido-2-ethyl-3-methyl-1,2,3,4-tetrahydroquinolin-6-yl)phel)hex-5-enamide] | 3100 nM | 2230 nM | 1.4 |
| CC[C@H]1[C@H](C)[C@@H](n2cc(-c3ccccc3)nn2)c2cc(C(=O)OC)ccc2N1C(C)=O [Compound 31, Methyl-(2S,3S,4R)-1-acetyl-2-ethyl-3-methyl-4-(4-phenyl-1H-1,2,3-triazol-1-yl)-1,2,3,4-tetrahydroquinoline-6-carboxylate] | > 200000 nM | 14900 nM |  |
| CCCCCc1cn([C@H]2c3cc(C(=O)OC)ccc3N(C(C)=O)[C@H](CC)[C@@H]2C)nn1 [ent-XF] | 6300 nM | 8330 nM | 0.8 |
| CC[C@@H]1[C@H](C)[C@@H](Nc2ncc(Cl)cn2)c2cc(C(=O)OC)ccc2N1C(C)=O [ent-XL] | > 100000 nM | 7440 nM |  |
| CC[C@H]1[C@@H](C)[C@H](n2cc(COCCOCCOCCOCCOCCOCC#Cc3cccc4c3CN(C3CCC(=O)NC3=O)C4=O)nn2)c2cc(C(=O)OC)ccc2N1C(C)=O (stereo partly drawn) [YG, Methyl-(2S,3R,4S)-1-acetyl-4-(4-(20-(2-(2,6-dioxopiperidin-3-yl)-1-oxoisoindolin-4-yl)-2,5,8,11,14,17-hexaoxaicos-19-yn-1-yl)-1H-1,2,3-triazol-1-yl)-2-ethyl-3-methyl-1,2,3,4-tetrahydroquinoline-6-carboxylate] | > 20000 nM | 1360 nM |  |
| C#CCOCCOCCOCCOCCOCc1cn([C@@H]2c3cc(C(=O)OC)ccc3N(C(C)=O)[C@@H](CC)[C@H]2C)nn1 [XS, Methyl-(2S,3R,4S)-4-(4-(2,5,8,11,14-pentaoxaheptadec-16-yn-1-yl)-1H-1,2,3-triazol-1-yl)-1-acetyl-2-ethyl-3-methyl-1,2,3,4-tetrahydroquinoline-6-carboxylate] | ~30000 nM | 1300 nM | 23.1 |
| CC[C@H]1[C@@H](C)[C@H](N=[N+]=[N-])c2cc(C(=O)OC)ccc2N1C(C)=O [Compound 27, Methyl-(2S,3R,4S)-1-acetyl-4-azido-2-ethyl-3-methyl-1,2,3,4-tetrahydroquinoline-6-carboxylate] | 17700 nM | 1880 nM | 9.4 |
| C#CCOCCOCc1cn([C@@H]2c3cc(C(=O)OC)ccc3N(C(C)=O)[C@@H](CC)[C@H]2C)nn1 [XP, Methyl-(2S,3R,4S)-1-acetyl-2-ethyl-3-methyl-4-(4-((2-(prop-2-yn-1-yloxy)ethoxy)methyl)-1H-1,2,3-triazol-1-yl)-1,2,3,4-tetrahydroquinoline-6-carboxylate] | ~30000 nM | 2260 nM | 13.2 |
| C=CCCCC(=O)Nc1ccc(-c2ccc3c(c2)[C@H](NC(=O)OC(C)C)[C@@H](C)[C@@H](CC)N3C(C)=O)cc1 [ent-XI] | 5740 nM | 2940 nM | 2.0 |
| C=CCCCC(=O)Nc1ccc(-c2ccc3c(c2)[C@@H](n2cc(CCCCC)nn2)[C@H](C)[C@H](CC)N3C(C)=O)cc1 [XE, N-(4-((2S,3R,4S)-1-acetyl-2-ethyl-3-methyl-4-(4-pentyl-1H-1,2,3-triazol-1-yl)-1,2,3,4-tetrahydroquinolin-6-yl)phenyl)hex-5-enamide] | 4080 nM | 3180 nM | 1.3 |
| C#CCOCCOCCOCCOCCOCCOCc1cn([C@@H]2c3cc(C(=O)OC)ccc3N(C(C)=O)[C@@H](CC)[C@H]2C)nn1 [XT, Methyl-(2S,3R,4S)-4-(4-(2,5,8,11,14,17-hexaoxaicos-19-yn-1-yl)-1H-1,2,3-triazol-1-yl)-1-acetyl-2-ethyl-3-methyl-1,2,3,4-tetrahydroquinoline-6-carboxylate] | ~35000 nM | 2040 nM | 17.2 |
| CC[C@@H]1[C@H](C)[C@@H](n2cc(-c3ccccc3)nn2)c2cc(C(=O)OC)ccc2N1C(C)=O (single isomer, unassigned) [ent-28] | > 100000 nM | 51400 nM |  |
| CC[C@H]1[C@@H](C)[C@H](NC(=O)OC(C)C)c2cc(C(=O)OC)ccc2N1C(C)=O [XJ, Methyl-(2S,3S,4S)-1-acetyl-2-ethyl-4-((isopropoxycarbonyl)amino)-3-methyl-1,2,3,4-tetrahydroquinoline-6-carboxylate] | 24200 nM | 1880 nM | 12.8 |
| C#CCOCCOCCOCCOCc1cn([C@@H]2c3cc(C(=O)OC)ccc3N(C(C)=O)[C@@H](CC)[C@H]2C)nn1 [XR, Methyl-(2S,3R,4S)-4-(4-(2,5,8,11-tetraoxatetradec-13-yn-1-yl)-1H-1,2,3-triazol-1-yl)-1-acetyl-2-ethyl-3-methyl-1,2,3,4-tetrahydroquinoline-6-carboxylate] | > 100000 nM | 2360 nM |  |
| CC[C@H]1[C@@H](C)[C@H](n2cc(COCCOCCOCCOCc3cn(C4c5cc(C(=O)OC)ccc5N(C(C)=O)[C@@H](CC)[C@H]4C)nn3)nn2)c2cc(C(=O)OC)ccc2N1C(C)=O (stereo partly drawn) [XW, Dimethyl-4,4′-((2,5,8,11-tetraoxadodecane-1,12-diyl)bis(1H-1,2,3-triazole-4,1-diyl))(2S,2′S,3R,3′R,4S,4′S)-bis(1-acetyl-2-ethyl-3-methyl-1,2,3,4-tetrahydroquinoline-6-carboxylate)] | 1850 nM | 95.4 nM | 19.4 |

Reference: US20240287025A1, “TETRAHYDROQUINOLINE (THQ) COUMPOUNDS” (Centre National de la Recherche Scientifique, priority 2021, published 2024)
